{
  "source": "patent US7211572B2",
  "about": "(Japan Tobacco Inc., priority 2003, dated 2007)",
  "note": "Counter-ions that a name gives are not always drawn.",
  "data": [
    {"biological_target": "T1, HIV integrase (Human immunodeficiency virus type 1 group M subtype B, UniProt P12497, F1332H)", "T1 construct": "HIV integrase full length gene; made in house; host or cells: Escherichia coli BL21(DE3), plasmid pET21a-INH", "test": "Determination of enzyme (HIV integrase) inhibitory activity", "assay_type": "biochemical", "conditions": "recombinant HIV integrase (F185H), strand transfer ELISA, absorbance at 450 nm", "outline": "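Full-length integrase with F185H, expressed in E. coli and purified, was reacted for 60 min at 37 °C with compound and biotinylated donor DNA bound to streptavidin plates. Target DNA was added for 10 min, then anti-digoxigenin-peroxidase detection at A450; IC50 from % inhibition versus enzyme-free blank.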", "units": {"IC50": "nM"}, "values": [
      {"compound": "CN(C)C(=O)c1cn2ccn(Cc3ccc(F)c(Cl)c3)c(=O)c2c(O)c1=O", "note": "[Example 208, N,N-dimethyl-2-(3-chloro-4-fluorobenzyl)-9-hydroxy-1,8-dioxo-1,8-dihydro-2H-pyrido[1,2-a]pyrazine-7-carboxamide]", "IC50": "< 10"},
      {"compound": "CS(=O)(=O)CCNC(=O)c1cn2ccn(Cc3cccc(Cl)c3)c(=O)c2c(O)c1=O", "note": "[Example 209, N-(2-methanesulfonylethyl)-2-(3-chlorobenzyl)-9-hydroxy-1,8-dioxo-1,8-dihydro-2H-pyrido[1,2-a]pyrazine-7-carboxamide]", "IC50": "10 to 100"},
      {"compound": "O=C(NCCN1CCCC1=O)c1cn2ccn(Cc3cccc(Cl)c3)c(=O)c2c(O)c1=O", "note": "[Example 210, N-[2-(2-oxopyrrolidin-1-yl)ethyl)-2-(3-chlorobenzyl)-9-hydroxy-1,8-dioxo-1,8-dihydro-2H-pyrido[1,2-a]pyrazine-7-carboxamide]", "IC50": "10 to 100"},
      {"compound": "CN(c1cn2ccn(Cc3cccc(Cl)c3)c(=O)c2c(O)c1=O)S(C)(=O)=O", "note": "[Example 211, N-[2-(3-chlorobenzyl)-9-hydroxy-1,8-dioxo-1,8-dihydro-2H-pyrido[1,2-a]pyrazin-7-yl]-N-methylmethanesulfonamide]", "IC50": "< 10"},
      {"compound": "COc1cc(Cl)cc(Cn2ccn3ccc(=O)c(O)c3c2=O)c1", "note": "[Example 212, 2-(3-chloro-5-methoxybenzyl)-9-hydroxy-2H-pyrido[1,2-a]pyrazine-1,8-dione hydrochloride]", "IC50": "10 to 100"},
      {"compound": "O=C(NCc1ccncc1)c1cn2ccn(Cc3cccc(Cl)c3)c(=O)c2c(O)c1=O", "note": "[Example 213, N-(pyridin-4-ylmethyl)-2-(3-chlorobenzyl)-9-hydroxy-1,8-dioxo-1,8-dihydro-2H-pyrido[1,2-a]pyrazine-7-carboxamide]", "IC50": "10 to 100"},
      {"compound": "O=C(NCc1ccc(F)cc1)c1cn2ccn(Cc3cccc(Cl)c3)c(=O)c2c(O)c1=O", "note": "[Example 214, N-(4-fluorobenzyl)-2-(3-chlorobenzyl)-9-hydroxy-1,8-dioxo-1,8-dihydro-2H-pyrido[1,2-a]pyrazine-7-carboxamide]", "IC50": "< 10"},
      {"compound": "O=C1c2c(O)c(=O)c(-c3nccs3)cn2CCN1Cc1cccc(Cl)c1", "note": "[Example 215, 2-(3-chlorobenzyl)-9-hydroxy-7-(thiazol-2-yl)-3,4-dihydro-2H-pyrido[1,2-a]pyrazine-1,8-dione]", "IC50": "< 10"},
      {"compound": "O=c1c(CO)cn2ccn(Cc3cccc(Cl)c3)c(=O)c2c1O", "note": "[Example 216, 2-(3-chlorobenzyl)-9-hydroxy-7-hydroxymethyl-2H-pyrido[1,2-a]pyrazine-1,8-dione hydrochloride]", "IC50": "10 to 100"},
      {"compound": "CC(C)(C)C(=O)c1cn2ccn(Cc3ccc(F)c(Cl)c3)c(=O)c2c(O)c1=O", "note": "[Example 217, 2-(3-chloro-4-fluorobenzyl)-7-(2,2-dimethylpropionyl)-9-hydroxy-2H-pyrido[1,2-a]pyrazine-1,8-dione hydrochloride]", "IC50": "< 10"},
      {"compound": "O=c1c(-c2cncs2)cn2ccn(Cc3cccc(Cl)c3)c(=O)c2c1O", "note": "[Example 218, 2-(3-chlorobenzyl)-9-hydroxy-7-(thiazol-5-yl)-2H-pyrido[1,2-a]pyrazine-1,8-dione hydrochloride]", "IC50": "< 10"},
      {"compound": "CNC(=O)c1cn2c(c(O)c1=O)C(=O)N(Cc1cccc(Cl)c1)CC2", "note": "[Example 219, 2-(3-chlorobenzyl)-9-hydroxy-1,8-dioxo-1,3,4,8-tetrahydro-2H-pyrido[1,2-a]pyrazine-7-carboxylic acid methylamide]", "IC50": "10 to 100"},
      {"compound": "CN(C)C(=O)c1cn2c(c(O)c1=O)C(=O)N(Cc1cccc(Cl)c1)CC2", "note": "[Example 220, N,N-dimethyl-2-(3-chlorobenzyl)-9-hydroxy-1,8-dioxo-1,3,4,8-tetrahydro-2H-pyrido[1,2-a]pyrazine-7-carboxamide]", "IC50": "10 to 100"},
      {"compound": "CC(C)(C)C(=O)c1cn2c(c(O)c1=O)C(=O)N(Cc1ccc(F)c(Cl)c1)CC2", "note": "[Example 221, 2-(3-chloro-4-fluorobenzyl)-7-(2,2-dimethylpropionyl)-9-hydroxy-3,4-dihydro-2H-pyrido[1,2-a]pyrazine-1,8-dione hydrochloride]", "IC50": "< 10"},
      {"compound": "CNC(=O)c1cn2c(CO)cn(Cc3ccc(F)c(Cl)c3)c(=O)c2c(O)c1=O", "note": "[Example 222, 2-(3-chloro-4-fluorobenzyl)-9-hydroxy-4-hydroxymethyl-1,8-dioxo-1,8-dihydro-2H-pyrido[1,2-a]pyrazine-7-carboxylic acid methylamide hydrochloride]", "IC50": "< 10"},
      {"compound": "CC(C)(C)C(=O)c1cn2c(c(O)c1=O)C(=O)N(Cc1cccc(Cl)c1)CC2", "note": "[Example 223, 2-(3-chlorobenzyl)-7-(2,2-dimethylpropionyl)-9-hydroxy-3,4-dihydro-2H-pyrido[1,2-a]pyrazine-1,8-dione hydrochloride]", "IC50": "10 to 100"},
      {"compound": "O=c1ccn2ccn(Cc3ccc(Cl)cc3O)c(=O)c2c1O", "note": "[Example 224, 2-(4-chloro-2-hydroxybenzyl)-9-hydroxy-2H-pyrido[1,2-a]pyrazine-1,8-dione hydrochloride]", "IC50": "10 to 100"},
      {"compound": "O=C1c2c(O)c(=O)c(-c3nccs3)cn2CCN1Cc1ccc(F)c(Cl)c1", "note": "[Example 225, 2-(3-chloro-4-fluorobenzyl)-9-hydroxy-7-(thiazol-2-yl)-3,4-dihydro-2H-pyrido[1,2-a]pyrazine-1,8-dione]", "IC50": "< 10"},
      {"compound": "CN(C(=O)Cn1ccn2ccc(=O)c(O)c2c1=O)c1ccccc1", "note": "[Example 226, 2-(9-hydroxy-1,8-dioxo-1,8-dihydro-pyrido[1,2-a]pyrazin-2-yl)-N-methyl-N-phenylacetamide hydrochloride]", "IC50": "100 to 1000"},
      {"compound": "CNC(=O)c1cn2c(c(O)c1=O)C(=O)N(Cc1ccc(F)c(Cl)c1)CC2", "note": "[Example 227, N-methyl-2-(3-chloro-4-fluorobenzyl)-9-hydroxy-1,8-dioxo-1,3,4,8-tetrahydro-2H-pyrido[1,2-a]pyrazine-7-carboxamide]", "IC50": "10 to 100"},
      {"compound": "CN(C)C(=O)c1cn2c(c(O)c1=O)C(=O)N(Cc1ccc(F)c(Cl)c1)CC2", "note": "[Example 228, N,N-dimethyl-2-(3-chloro-4-fluorobenzyl)-9-hydroxy-1,8-dioxo-1,3,4,8-tetrahydro-2H-pyrido[1,2-a]pyrazine-7-carboxamide]", "IC50": "10 to 100"},
      {"compound": "CC(=O)OCC(C)(C)C(=O)c1cn2ccn(Cc3cccc(Cl)c3)c(=O)c2c(O)c1=O", "note": "[Example 229, 3-[2-(3-chlorobenzyl)-9-hydroxy-1,8-dioxo-1,8-dihydro-2H-pyrido[1,2-a]pyrazin-7-yl]-2,2-dimethyl-3-oxopropyl acetate hydrochloride]", "IC50": "< 10"},
      {"compound": "CC(C)(CO)C(=O)c1cn2ccn(Cc3cccc(Cl)c3)c(=O)c2c(O)c1=O", "note": "[Example 230, 2-(3-chlorobenzyl)-9-hydroxy-7-(3-hydroxy-2,2-dimethylpropionyl)-2H-pyrido[1,2-a]pyrazine-1,8-dione hydrochloride]", "IC50": "< 10"},
      {"compound": "O=c1c(-c2cnccn2)cn2ccn(Cc3cccc(Cl)c3)c(=O)c2c1O", "note": "[Example 231, 2-(3-chlorobenzyl)-9-hydroxy-7-(pyrazin-2-yl)-2H-pyrido [1,2-a]pyrazine-1,8-dione hydrochloride]", "IC50": "< 10"},
      {"compound": "Cn1ncnc1-c1cn2ccn(Cc3cccc(Cl)c3)c(=O)c2c(O)c1=O", "note": "[Example 232, 2-(3-chlorobenzyl)-9-hydroxy-7-(2-methyl-2H-1,2,4-triazol-3-yl)-2H-pyrido[1,2-a]pyrazine-1,8-dione hydrochloride]", "IC50": "< 10"}
    ]}
  ]
}
